According to the supplement of paper PMC10307832:

What was measured:
Experiment in all cases: relative viability (nuclei count vs DMSO), 5 days (fraction); higher = more cells survive
Axitinib + OSI-027 = compound: CNC(=O)c1ccccc1Sc1ccc2c(/C=C/c3ccccn3)n[nH]c2c1 [Axitinib] + COc1cccc2cc(-c3nc([C@H]4CC[C@H](C(=O)O)CC4)n4ncnc(N)c34)[nH]c12 [OSI-027] (partner 0.5 µM)
In short: (§1)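 Nuclei were stained with Hoechst during a one-step fixation (final 0.05% Triton X-100, 1% formaldehyde, 1 ug/ml Hoechst) carried out 5 days after dosing, then counted on 4× images. The cells, lung cancer lines in 1536-well plates, had been dosed by pin tool the day after seeding with one drug alone or a fixed anchor-drug dose plus five library-drug doses (not always all listed) in √10 steps. Relative viability is the nuclei count in treated wells divided by that in vehicle wells, and each value is the median of duplicate plates.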

Axitinib + Decitabine = compound: CNC(=O)c1ccccc1Sc1ccc2c(/C=C/c3ccccn3)n[nH]c2c1 [Axitinib] + Nc1ncn([C@H]2C[C@H](O)[C@@H](CO)O2)c(=O)n1 [Decitabine] (partner 2 µM)
In short: as §1

Bemcentinib + Tozasertib = compound: Nc1nc(Nc2ccc3c(c2)CC[C@@H](N2CCCC2)CC3)nn1-c1cc2c(nn1)-c1ccccc1CCC2 [Bemcentinib] + Cc1cc(Nc2cc(N3CCN(C)CC3)nc(Sc3ccc(NC(=O)C4CC4)cc3)n2)n[nH]1 [Tozasertib] (partner 0.1 µM)
In short: as §1

Bemcentinib + AZD7762 = compound: Nc1nc(Nc2ccc3c(c2)CC[C@@H](N2CCCC2)CC3)nn1-c1cc2c(nn1)-c1ccccc1CCC2 [Bemcentinib] + NC(=O)Nc1cc(-c2cccc(F)c2)sc1C(=O)N[C@H]1CCCNC1 [AZD7762] (partner 0.2 µM)
In short: as §1

NCI-H650
relative viability (Axitinib + OSI-027; first compound 0.005 µM): 0.533 | relative viability (Axitinib + OSI-027; first compound 0.01581 µM): 0.486 | relative viability (Axitinib + OSI-027; first compound 0.05 µM): 0.517 | relative viability (Axitinib + OSI-027; first compound 0.1581 µM): 0.571 | relative viability (Axitinib + OSI-027; first compound 0.5 µM): 0.584 | relative viability (Axitinib + Decitabine; first compound 0.005 µM): 0.287 | relative viability (Axitinib + Decitabine; first compound 0.01581 µM): 0.335 | relative viability (Axitinib + Decitabine; first compound 0.05 µM): 0.289 | relative viability (Axitinib + Decitabine; first compound 0.1581 µM): 0.31 | relative viability (Axitinib + Decitabine; first compound 0.5 µM): 0.306 | relative viability (Bemcentinib + Tozasertib; first compound 0.04 µM): 0.715 | relative viability (Bemcentinib + Tozasertib; first compound 0.1265 µM): 0.848 | relative viability (Bemcentinib + Tozasertib; first compound 0.4 µM): 0.798 | relative viability (Bemcentinib + Tozasertib; first compound 1.265 µM): 0.77 | relative viability (Bemcentinib + Tozasertib; first compound 4 µM): 0.718 | relative viability (Bemcentinib + AZD7762; first compound 0.04 µM): 0.956 | relative viability (Bemcentinib + AZD7762; first compound 0.1265 µM): 0.964 | relative viability (Bemcentinib + AZD7762; first compound 0.4 µM): 1.15 | relative viability (Bemcentinib + AZD7762; first compound 1.265 µM): 0.886 | relative viability (Bemcentinib + AZD7762; first compound 4 µM): 1.17
